# Test results reported in PMC6934184, “Selective DNA-PKcs inhibition extends the therapeutic index of localized radiotherapy and chemotherapy” (The Journal of Clinical Investigation, 2019).
# Biological target: T1, ZAP70 (Homo sapiens, UniProt P43403)
# T1 construct: purchased Thermo Fisher Scientific (Life Technologies) SelectScreen
# Test: SelectScreen Z'LYTE
# Type: biochemical
# How it was run: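 Compound tested in SelectScreen activity assays, Z'LYTE for CSF1R, CDK1/cyclin B and MAP2K6 and Adapta for CAMK1. ATP for CAMK1 was listed as 10, and Km app was used for CSF1R. Results are expressed in percent.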
# T1 sequence (P43403 whole entry): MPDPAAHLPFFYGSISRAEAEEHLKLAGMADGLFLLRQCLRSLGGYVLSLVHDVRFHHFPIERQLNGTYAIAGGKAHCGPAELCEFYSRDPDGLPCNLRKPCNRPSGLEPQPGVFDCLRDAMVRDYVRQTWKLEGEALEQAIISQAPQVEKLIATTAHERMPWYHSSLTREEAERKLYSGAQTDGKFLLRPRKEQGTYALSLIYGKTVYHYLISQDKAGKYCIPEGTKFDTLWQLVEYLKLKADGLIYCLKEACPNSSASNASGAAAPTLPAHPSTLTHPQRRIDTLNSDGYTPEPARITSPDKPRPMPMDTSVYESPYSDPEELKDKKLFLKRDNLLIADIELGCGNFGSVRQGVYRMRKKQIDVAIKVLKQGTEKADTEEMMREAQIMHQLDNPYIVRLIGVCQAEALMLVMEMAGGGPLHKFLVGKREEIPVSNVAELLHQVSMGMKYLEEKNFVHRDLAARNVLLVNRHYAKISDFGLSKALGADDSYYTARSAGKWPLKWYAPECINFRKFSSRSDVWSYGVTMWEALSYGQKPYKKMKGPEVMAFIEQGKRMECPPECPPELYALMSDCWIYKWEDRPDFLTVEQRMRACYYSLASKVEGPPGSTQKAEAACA
compound,measurement,value
CN(C(=O)CN1CCOCC1)c1ccc2sc3c(-c4cccc5c(=O)cc(N6CC7CCC(C6)O7)oc45)cccc3c2c1 [NU5455],inhibition at 1 µM,0.3%
